Test results published in US7745465B2, “Method of enhancing cellular production of molecular chaperone, hydroxylamine derivatives useful for enhancing the chaperone production and the preparation thereof” (CytRx Corporation, priority 1995, dated 2010).

How the values were obtained:
HSPs = experiment: Western blot overview of all HSPs in heat shocked H9c2 heart cells; format: cell-based, rat; details: added 16 hours before the heat treatment
Experimental: Experiments set forth in this section were conducted to determine whether N-[2-hydroxy-3-(1-piperidinyl)propoxy]-3-pyridinecarboximidoyl chloride maleate acts to increase the expression of molecular chaperon by a cell. The accumulation of different heat shock proteins subsequent to a period of exposure to heat shock alone, and to heat shock in combination with N-[2-hydroxy-3-(1-piperidinyl)propoxy]-3-pyridinecarboximidoyl chloride maleate administration, was examined by adding 10^−5 M of N-[2-hydroxy-3-(1-piperidinyl)propoxy]-3-pyridinecarboximidoyl chloride maleate before, during, or immediately after hyperthermic treatment of heart myogenic cells (H9c2 cells).
The embryonic rat heart-derived cell line H9c2 was obtained from European Collection of Animal cell Cultures (ECACC) (88092904). The cells were maintained at 37° C. in Dulbecco's modified Eagle's medium (DMEM) supplemented with 10% fetal calf serum (GIBCO) in JOUAN C02 thermostat (5% CO2).
Heat shock was performed at 43° C. in CO2 thermostat for the given time intervals (20, 40, 60, 90 and 120 min.). Cells were then taken back to 37° C. for 6 hours and proteins were extracted for SDS-PAGE. […]
Protein concentration was determined from 5:1 samples by the Bradford assay (M. M. Braford, Anal. Biochem., 72: 248-254 (1976)) in three parallel. […]

hsp72 [1] = experiment: hsp72 content of K562 tumor cells by flow-cytometry; format: cell-based, human; details: for hsp72 expression compared to heat shock alone: 5×10^−5 M during 42° C. for 2 hours, 16 hrs recovery, maleate
Description: Human K562 cells, a myeloid tumor cell line derived from a patient with chronic myelogenous leukemia in blast phase (ATCC, CCL243) was used (Lozzio, B C and Lozzio, B B Blood 45:321, 1975).

K562 cells = experiment: Sensitivity of K562 cells to lysis mediated by NK cells; format: cell-based, human; details: heat shock plus treatment
HSP72 [2] = experiment: Heat stress induced HSP72 production in 3T3 cells; format: cell-based, mouse; details: 10^−5 M
Outline: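 Mouse 3T3 fibroblasts in MEM monolayer were heat-stressed 30 min at 43° C, with test compounds at 10^−5 M given 15 min before or 100 min after stress. HSP72 detected by immunoblot with SPA 810 primary and HRP secondary antibodies, quantified by densitometry.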

For `O=C(O)/C=C\C(=O)O.OC(CON=C(Cl)c1cccnc1)CN1CCCCC1` (stereo not shown) [N-[2-hydroxy-3-(1-piperidinyl)-propoxy]3-pyridinecarboximidoyl chloride maleate], the “level of all HSPs increased further as compared to that observed upon heat stress” value (HSPs) was “at least twofold”, the “hsp72 expression compared to heat shock alone” value (hsp72 [1]; listed as N-[2-hydroxy-3-(1-piperidinyl)propoxy]-3-piridinecarboximidoyl chloride maleate) was “enhanced level of hsp72” and the “hsp72 expression compared to heat shock alone” value (hsp72 [1]; listed as N-[2-hydroxy-3-(1-piperidinyl)propoxy]-3-piridinecarboxymidoyl chloride maleate) was “significant increase of hsp72 expression”. The hsp72 levels (hsp72 [1]; compound alone, no heat shock) was “did not increase hsp72 levels”, the “lisability of K562 cells by NK cells” value (K562 cells) was “synergistic effect on the lisability of K562 cells” and the “HSP72 level relative to the stress exposed control” value (HSP72 [2]; treatment 15 min. before 30 min. 43° C. heat stress) was “+++ (>100%)”. The “HSP72 level relative to the stress exposed control” value (HSP72 [2]; treatment 100 min. after 30 min. 43° C. heat stress) was 0 (0 indicates that the treatment altered by ±20% the stress induced hsp72 level in the cells).
